Assay results published in the NIST ThermoML archive (doi:10.1021/je400630f).
Values joined by “and” are separate entries in the source; they are usually repeats but may differ in a detail not shown here. Equal values may be shown once. ± gives the expanded uncertainty stated by the source.

Experiments:
[1] = 100 kPa, Liquid; for viscosity: Capillary tube (Ostwald / Ubbelohde) method
[2] = xn = mol fraction of the nth substance listed; conditions: 100 kPa, Liquid, x1 = 1; for viscosity: Capillary tube (Ostwald / Ubbelohde) method

| mass density ([1]; 283.15 K) | viscosity ([1]; 283.15 K) | mass density ([1]; 293.15 K) | viscosity ([1]; 293.15 K) | mass density ([1]; 298.15 K) | viscosity ([1]; 298.15 K) | mass density ([1]; 303.15 K) | viscosity ([1]; 303.15 K) | mass density ([1]; 313.15 K) | viscosity ([1]; 313.15 K) | viscosity ([2]; 283.15 K) | mass density ([2]; 283.15 K) | viscosity ([2]; 293.15 K) | mass density ([2]; 293.15 K) | viscosity ([2]; 298.15 K) | mass density ([2]; 298.15 K) | viscosity ([2]; 303.15 K) | mass density ([2]; 303.15 K) | viscosity ([2]; 313.15 K) | mass density ([2]; 313.15 K) | SMILES |
| --- | --- | --- | --- | --- | --- | --- | --- | --- | --- | --- | --- | --- | --- | --- | --- | --- | --- | --- | --- | --- |
| 817.3 ± 1.2 kg/m3 | 3.822 ± 0.079 mPa·s | 809.6 ± 1.3 kg/m3 | 2.859 ± 0.059 mPa·s | 805.8 ± 1.3 kg/m3 | 2.558 ± 0.053 mPa·s | 802.1 ± 1.3 kg/m3 | 2.236 ± 0.046 mPa·s | 794.3 ± 1.3 kg/m3 | 1.736 ± 0.036 mPa·s |  |  |  |  |  |  |  |  |  |  | CCCCO [butan-1-ol] |
| 836.6 ± 1.2 kg/m3 | 22.06 ± 0.45 mPa·s | 829.9 ± 1.2 kg/m3 | 14.5 ± 0.3 mPa·s | 826.5 ± 1.2 kg/m3 | 11.47 ± 0.24 mPa·s | 823 ± 1.2 kg/m3 | 9.61 ± 0.2 mPa·s | 816.2 ± 1.3 kg/m3 | 6.9 ± 0.14 mPa·s |  |  |  |  |  |  |  |  |  |  | CCCCCCCCCCO [decan-1-ol] |
|  |  |  |  |  |  |  |  |  |  | 1.475 ± 0.031 mPa·s | 798 ± 1.3 kg/m3 | 1.196 ± 0.025 mPa·s | 789.5 ± 1.4 kg/m3 | 1.102 ± 0.023 mPa·s | 785.2 ± 1.4 kg/m3 | 0.996 ± 0.021 mPa·s | 781.1 ± 1.4 kg/m3 | 0.842 ± 0.018 mPa·s | 772.3 ± 1.4 kg/m3 | CCO [ethanol] + CCCCCCCCCCO |
|  |  |  |  |  |  |  |  |  |  | 1.475 ± 0.031 mPa·s | 798 ± 1.3 kg/m3 | 1.196 ± 0.025 mPa·s | 789.5 ± 1.4 kg/m3 | 1.102 ± 0.023 mPa·s | 785.2 ± 1.4 kg/m3 | 0.996 ± 0.021 mPa·s | 781.1 ± 1.4 kg/m3 | 0.842 ± 0.018 mPa·s | 772.3 ± 1.4 kg/m3 | CCO [ethanol] + CCCCCCCCCO |
|  |  |  |  |  |  |  |  |  |  | 1.475 ± 0.031 mPa·s | 798 ± 1.3 kg/m3 | 1.196 ± 0.025 mPa·s | 789.5 ± 1.4 kg/m3 | 1.102 ± 0.023 mPa·s | 785.2 ± 1.4 kg/m3 | 0.994 ± 0.021 mPa·s | 781.1 ± 1.4 kg/m3 | 0.842 ± 0.018 mPa·s | 772.3 ± 1.4 kg/m3 | CCO [ethanol] + CCCCCCCCO |
|  |  |  |  |  |  |  |  |  |  | 1.475 ± 0.031 mPa·s | 798 ± 1.3 kg/m3 | 1.196 ± 0.025 mPa·s | 789.5 ± 1.4 kg/m3 | 1.102 ± 0.023 mPa·s | 785.2 ± 1.4 kg/m3 | 0.996 ± 0.021 mPa·s | 781.1 ± 1.4 kg/m3 | 0.842 ± 0.018 mPa·s | 772.3 ± 1.4 kg/m3 | CCO [ethanol] + CCCCCCCO |
|  |  |  |  |  |  |  |  |  |  | 1.475 ± 0.031 mPa·s | 798 ± 1.3 kg/m3 | 1.196 ± 0.025 mPa·s | 789.5 ± 1.4 kg/m3 | 1.102 ± 0.023 mPa·s | 785.2 ± 1.4 kg/m3 | 0.996 ± 0.021 mPa·s | 781.1 ± 1.4 kg/m3 | 0.842 ± 0.018 mPa·s | 772.3 ± 1.4 kg/m3 | CCO [ethanol] + CCCCCO |
|  |  |  |  |  |  |  |  |  |  | 1.475 ± 0.031 mPa·s | 798 ± 1.3 kg/m3 | 1.196 ± 0.025 mPa·s | 789.5 ± 1.4 kg/m3 | 1.102 ± 0.023 mPa·s | 785.2 ± 1.4 kg/m3 | 0.996 ± 0.021 mPa·s | 781.1 ± 1.4 kg/m3 | 0.842 ± 0.018 mPa·s | 772.3 ± 1.4 kg/m3 | CCO [ethanol] + CCCCO |
| 829.6 ± 1.3 kg/m3 | 10.15 ± 0.21 mPa·s | 822.6 ± 1.3 kg/m3 | 7.026 ± 0.15 mPa·s | 819.1 ± 1.3 kg/m3 | 5.947 ± 0.12 mPa·s | 815.6 ± 1.3 kg/m3 | 5.041 ± 0.11 mPa·s | 808.4 ± 1.4 kg/m3 | 3.802 ± 0.08 mPa·s |  |  |  |  |  |  |  |  |  |  | CCCCCCCO [heptan-1-ol] |
| 835 ± 1.3 kg/m3 | 17.44 ± 0.36 mPa·s | 828.1 ± 1.3 kg/m3 | 11.63 ± 0.24 mPa·s | 824.7 ± 1.3 kg/m3 | 9.519 ± 0.2 mPa·s | 821.3 ± 1.3 kg/m3 | 7.806 ± 0.16 mPa·s | 814.3 ± 1.4 kg/m3 | 5.668 ± 0.12 mPa·s |  |  |  |  |  |  |  |  |  |  | CCCCCCCCCO [nonan-1-ol] |
| 832.1 ± 1.2 kg/m3 | 13.49 ± 0.28 mPa·s | 825.2 ± 1.2 kg/m3 | 9.016 ± 0.19 mPa·s | 821.9 ± 1.2 kg/m3 | 7.39 ± 0.15 mPa·s | 818.4 ± 1.3 kg/m3 | 6.306 ± 0.13 mPa·s | 811.4 ± 1.3 kg/m3 | 4.587 ± 0.095 mPa·s |  |  |  |  |  |  |  |  |  |  | CCCCCCCCO [octan-1-ol] |
| 822.1 ± 1.3 kg/m3 | 5.417 ± 0.11 mPa·s | 814.7 ± 1.3 kg/m3 | 3.974 ± 0.083 mPa·s | 811.2 ± 1.3 kg/m3 | 3.441 ± 0.072 mPa·s | 807.5 ± 1.3 kg/m3 | 2.99 ± 0.062 mPa·s | 800 ± 1.4 kg/m3 | 2.263 ± 0.047 mPa·s |  |  |  |  |  |  |  |  |  |  | CCCCCO [pentan-1-ol] |

| SMILES | mass density ([1]; 283.15 K) | viscosity ([1]; 283.15 K) | mass density ([1]; 293.15 K) | viscosity ([1]; 293.15 K) | mass density ([1]; 298.15 K) | viscosity ([1]; 298.15 K) | mass density ([1]; 303.15 K) | viscosity ([1]; 303.15 K) | mass density ([1]; 313.15 K) | viscosity ([1]; 313.15 K) | viscosity ([2]; 283.15 K) | mass density ([2]; 283.15 K) | viscosity ([2]; 293.15 K) | mass density ([2]; 293.15 K) | viscosity ([2]; 298.15 K) | mass density ([2]; 298.15 K) | viscosity ([2]; 303.15 K) | mass density ([2]; 303.15 K) | viscosity ([2]; 313.15 K) | mass density ([2]; 313.15 K) |
| --- | --- | --- | --- | --- | --- | --- | --- | --- | --- | --- | --- | --- | --- | --- | --- | --- | --- | --- | --- | --- |
| CCO [ethanol] | 798 ± 1.3 kg/m3 | 1.475 ± 0.031 mPa·s | 789.5 ± 1.4 kg/m3 | 1.196 ± 0.025 mPa·s | 785.2 ± 1.4 kg/m3 | 1.102 ± 0.023 mPa·s | 781.1 ± 1.4 kg/m3 | 0.996 ± 0.021 mPa·s and 0.994 ± 0.021 mPa·s | 772.3 ± 1.4 kg/m3 | 0.842 ± 0.018 mPa·s |  |  |  |  |  |  |  |  |  |  |
